Assay results from the NIST ThermoML archive (doi:10.1021/je401097f).
± gives the expanded uncertainty stated by the source.

Experiments:
[1] = refractive index (other wavelength) (dimensionless); conditions: 100 kPa, Liquid, Wavelength=632.8 nm, Standard Abbe refractometry
[2] = refractive index (other wavelength) (dimensionless); xn = mol fraction of the nth substance listed; conditions: 296.36 K, 100 kPa, Liquid, Wavelength=632.8 nm, Standard Abbe refractometry

O=[N+]([O-])c1ccccc1 [nitrobenzene]
[1]
Conditions	refractive index
288.97 K	1.5501 ± 0.0004
289.62 K	1.5497 ± 0.0004
290.5 K	1.5493 ± 0.0004
291.45 K	1.5488 ± 0.0004
292.36 K	1.5484 ± 0.0004
293.38 K	1.5479 ± 0.0004
294.4 K	1.5474 ± 0.0004
295.5 K	1.5469 ± 0.0004
301.66 K	1.5439 ± 0.0004
302.72 K	1.5433 ± 0.0004
303.85 K	1.5428 ± 0.0004
304.98 K	1.5423 ± 0.0004
306.08 K	1.5418 ± 0.0004
307.2 K	1.5412 ± 0.0004
308.25 K	1.5407 ± 0.0004
309.34 K	1.5402 ± 0.0004

O=[N+]([O-])c1ccccc1 [nitrobenzene] + CCCCCCCCC
[2]
Conditions	refractive index
x1 = 0.153	1.4162 ± 0.0004
x1 = 0.2	1.4207 ± 0.0005
x1 = 0.275	1.4284 ± 0.0005
x1 = 0.379	1.4401 ± 0.0005
x1 = 0.541	1.4612 ± 0.0005
x1 = 0.594	1.4691 ± 0.0005
x1 = 0.688	1.4838 ± 0.0005
x1 = 0.799	1.5035 ± 0.0006
x1 = 0.896	1.5231 ± 0.0006
x1 = 1	1.5467 ± 0.0004

CCCCCCCCC [nonane]
[1]
Conditions	refractive index
290.88 K	1.4053 ± 0.0004
291.94 K	1.4048 ± 0.0004
292.73 K	1.4044 ± 0.0004
293.55 K	1.404 ± 0.0004
294.5 K	1.4036 ± 0.0004
295.51 K	1.4031 ± 0.0004
296.48 K	1.4026 ± 0.0004
297.42 K	1.4022 ± 0.0004

CCCCCCCCC [nonane] + O=[N+]([O-])c1ccccc1
Conditions	refractive index
[2], x2 = 0	1.4029 ± 0.0004
